Reference: BindingDB's records for doi:10.1021/jm701383e (Merck Serono, 2008)

These compounds were tested against T1, Prostaglandin D2 receptor 2 (Homo sapiens, UniProt Q9Y5Y4) (assay: Radioligand Binding Assay and [35S] GTP-gamma-S Binding Assay). Details: not given.
T1 sequence (Q9Y5Y4 whole entry): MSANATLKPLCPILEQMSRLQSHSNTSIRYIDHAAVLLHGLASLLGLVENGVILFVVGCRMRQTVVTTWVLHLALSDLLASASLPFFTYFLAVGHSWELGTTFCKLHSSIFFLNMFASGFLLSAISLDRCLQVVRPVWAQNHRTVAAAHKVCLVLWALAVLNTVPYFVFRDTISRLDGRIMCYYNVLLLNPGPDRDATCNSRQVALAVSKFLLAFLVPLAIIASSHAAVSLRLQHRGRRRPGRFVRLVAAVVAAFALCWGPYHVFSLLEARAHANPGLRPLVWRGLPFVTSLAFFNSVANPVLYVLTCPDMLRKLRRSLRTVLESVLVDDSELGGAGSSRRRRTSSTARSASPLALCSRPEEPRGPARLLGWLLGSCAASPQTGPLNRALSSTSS
Protocol: (§1) A scintillation proximity assay was used for radioligand competition and saturation binding assays. Nonspecific binding was determined in the presence of 1 uM PGD2. Binding activity was determined by using a 1450 Microbeta scintillation counter (Wallac, UK). Ki values were calculated by using the Cheng-Prusoff equation, and represent the average of at least three independent dose-response experiments. EC50/IC50 values were obtained from GTP-gamma-S binding assay, which measures antagonist activity of compounds in the presence of 80 nM PGD2.

Compound	Ki [nM]
O=C(O)CN1C(=O)[C@]2(CC(=O)N(Cc3cc(Cl)ccc3F)C2)c2cc(Cl)ccc21 [2-[(3R)-5-chloro-1'-[(5-chloro-2-fluorophenyl)methyl]-1,2-dihydrospiro[indole-3,3'-pyrrolidine]-2,5'-dione]acetic acid]	683
O=C(O)CN1C(=O)[C@@]2(CC(=O)N(Cc3cc(Cl)ccc3F)C2)c2cc(Cl)ccc21 [2-[(3S)-5-chloro-1'-[(5-chloro-2-fluorophenyl)methyl]-1,2-dihydrospiro[indole-3,3'-pyrrolidine]-2,5'-dione]acetic acid]	13

Same assay, conditions: pH 7.4; 22 °C

Compound	IC50 [nM]
O=C(O)CN1C(=O)C2(CC(=O)N(Cc3ccccc3)C2=O)c2cc(Cl)ccc21 (configuration not stated) [2-{1'-benzyl-5-chloro-1,2-dihydrospiro[indole-3,3'-pyrrolidine]-2,2',5'-trione}acetic acid]	418
O=C(O)CN1C(=O)C2(CC(=O)N(Cc3ccccc3F)C2=O)c2cc(Cl)ccc21 (configuration not stated) [2-{5-chloro-1'-[(2-fluorophenyl)methyl]-1,2-dihydrospiro[indole-3,3'-pyrrolidine]-2,2',5'-trione}acetic acid]	212
O=C(O)CN1C(=O)C2(CC(=O)N(Cc3ccc(F)cc3)C2=O)c2cc(Cl)ccc21 (configuration not stated) [2-{5-chloro-1'-[(4-fluorophenyl)methyl]-1,2-dihydrospiro[indole-3,3'-pyrrolidine]-2,2',5'-trione}acetic acid]	182
O=C(O)CN1C(=O)C2(CC(=O)N(Cc3cccc(Cl)c3)C2=O)c2cc(Cl)ccc21 (configuration not stated) [2-{5-chloro-1'-[(3-chlorophenyl)methyl]-1,2-dihydrospiro[indole-3,3'-pyrrolidine]-2,2',5'-trione}acetic acid]	122

These compounds were tested against T2, Prostaglandin D2 receptor 2 (Mus musculus, UniProt Q9Z2J6) in the same assay as above. Details: not given.
T2 sequence (Q9Z2J6 whole entry): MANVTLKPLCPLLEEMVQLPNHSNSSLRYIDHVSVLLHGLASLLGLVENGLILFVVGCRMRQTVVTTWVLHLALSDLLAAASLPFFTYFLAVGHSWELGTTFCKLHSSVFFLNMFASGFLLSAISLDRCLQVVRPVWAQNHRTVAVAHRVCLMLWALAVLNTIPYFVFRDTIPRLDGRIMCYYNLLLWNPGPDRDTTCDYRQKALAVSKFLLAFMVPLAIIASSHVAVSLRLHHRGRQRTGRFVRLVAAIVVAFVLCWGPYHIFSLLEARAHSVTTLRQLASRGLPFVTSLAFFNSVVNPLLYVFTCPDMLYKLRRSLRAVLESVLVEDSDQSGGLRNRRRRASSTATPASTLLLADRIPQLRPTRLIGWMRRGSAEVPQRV
Protocol: as §1

Compound	Ki [nM]
O=C(O)CN1C(=O)[C@@]2(CC(=O)N(Cc3cc(Cl)ccc3F)C2)c2cc(Cl)ccc21 [2-[(3S)-5-chloro-1'-[(5-chloro-2-fluorophenyl)methyl]-1,2-dihydrospiro[indole-3,3'-pyrrolidine]-2,5'-dione]acetic acid]	88

What follows are compounds tested against T1, Prostaglandin D2 receptor 2 (assay: Radioligand Binding Assay). Details: not given.

Compound	EC50 [nM]
O=C(O)CN1C(=O)C2(CC(=O)N(Cc3cc(Cl)cc(Cl)c3)C2=O)c2cc(Cl)ccc21 (configuration not stated) [2-{5-chloro-1'-[(3,5-dichlorophenyl)methyl]-1,2-dihydrospiro[indole-3,3'-pyrrolidine]-2,2',5'-trione}acetic acid]	82
Cc1noc(-c2ccccc2)c1CN1CC2(CC1=O)C(=O)N(CC(=O)O)c1ccc(Cl)cc12 (configuration not stated) [2-{5-chloro-1'-[(3-methyl-5-phenyl-1,2-oxazol-4-yl)methyl]-1,2-dihydrospiro[indole-3,3'-pyrrolidine]-2,5'-dione}acetic acid]	19
Cc1noc(-c2ccccc2)c1CN1C(=O)CC2(C1=O)C(=O)N(CC(=O)O)c1ccc(Cl)cc12 (configuration not stated) [2-{5-chloro-1'-[(3-methyl-5-phenyl-1,2-oxazol-4-yl)methyl]-1,2-dihydrospiro[indole-3,3'-pyrrolidine]-2,2',5'-trione}acetic acid]	23
O=C(O)CN1C(=O)[C@@]2(CC(=O)N(Cc3cc(Cl)ccc3F)C2=O)c2cc(Cl)ccc21 [2-[(3R)-5-chloro-1'-[(5-chloro-2-fluorophenyl)methyl]-1,2-dihydrospiro[indole-3,3'-pyrrolidine]-2,2',5'-trione]acetic acid]	66
Cc1nc(CN2C(=O)CC3(C2=O)C(=O)N(CC(=O)O)c2ccc(Cl)cc23)cs1 (configuration not stated) [2-{5-chloro-1'-[(2-methyl-1,3-thiazol-4-yl)methyl]-1,2-dihydrospiro[indole-3,3'-pyrrolidine]-2,2',5'-trione}acetic acid]	236
O=C(O)CN1C(=O)C2(CC(=O)N(Cc3cc(Cl)ccc3F)C2=O)c2cc(Cl)ccc21 (configuration not stated) [2-{5-chloro-1'-[(5-chloro-2-fluorophenyl)methyl]-1,2-dihydrospiro[indole-3,3'-pyrrolidine]-2,2',5'-trione}acetic acid]	48
Cc1onc(-c2ccccc2)c1CN1C(=O)CC2(C1=O)C(=O)N(CC(=O)O)c1ccc(Cl)cc12 (configuration not stated) [2-{5-chloro-1'-[(5-methyl-3-phenyl-1,2-oxazol-4-yl)methyl]-1,2-dihydrospiro[indole-3,3'-pyrrolidine]-2,2',5'-trione}acetic acid]	21
O=C(O)CN1C(=O)[C@@]2(CC(=O)N(Cc3cccc(Cl)c3)C2=O)c2cc(Cl)ccc21 [2-[(3R)-5-chloro-1'-[(3-chlorophenyl)methyl]-1,2-dihydrospiro[indole-3,3'-pyrrolidine]-2,2',5'-trione]acetic acid]	107
Cc1noc(C)c1CN1C(=O)CC2(C1=O)C(=O)N(CC(=O)O)c1ccc(Cl)cc12 (configuration not stated) [2-{5-chloro-1'-[(3,5-dimethyl-1,2-oxazol-4-yl)methyl]-1,2-dihydrospiro[indole-3,3'-pyrrolidine]-2,2',5'-trione}acetic acid]	220
O=C(O)CN1C(=O)C2(CC(=O)N(Cc3csc(-c4cccc(Cl)c4)n3)C2=O)c2cc(Cl)ccc21 (configuration not stated) [2-(5-chloro-1'-{[2-(3-chlorophenyl)-1,3-thiazol-4-yl]methyl}-1,2-dihydrospiro[indole-3,3'-pyrrolidine]-2,2',5'-trione)acetic acid]	48
